Laboratory results from patent publication US20190031615A1, “3-ETHYL-3-PHENYLAZEPANE DERIVATIVES HAVING MULTIMODAL ACTIVITY AGAINST PAIN” (LABORATORIOS DEL DR. ESTEVE S.A., priority 2016, published 2019).

Test system: σ1 receptor and μ-opioid receptor
Test: Human σ1 receptor and human μ-opioid receptor radioligand assays (dual binding scale)
Set-up: key to μ and σ1 dual binding: +: Both Ki-μ and Ki-σ1>=500 nM; ++: One Ki <500 nM while the other Ki is >=500 nM; +++: Both Ki-μ and Ki-σ1 <500 nM; ++++: Both Ki-μ and Ki-σ1 <100 nM
Settings: joint class for both Ki; σ1: [3H](+)-pentazocine, transfected HEK-293 membranes; μ: [3H]-DAMGO, transfected CHO-K1 cell membranes
Description: To investigate binding properties of test compounds to human […] receptor, transfected HEK-293 membranes and [^3H](+)-pentazocine (Perkin Elmer, NET-1056), as the radioligand, were used. The assay was carried out with 7 μg of membrane suspension, 5 nM of [^3H](+)-pentazocine in either absence or presence of either buffer or 10 μM Haloperidol for total and non-specific binding, respectively. Binding buffer contained Tris-HCl 50 mM at pH 8. Plates were incubated at 37° C. for 120 minutes. After the incubation period, the reaction mix was then transferred to MultiScreen HTS, FC plates (Millipore), filtered and plates were washed 3 times with ice-cold 10 mM Tris-HCL (pH7.4). Filters were dried and counted at approximately 40% efficiency in a MicroBeta scintillation counter (Perkin-Elmer) using EcoScint liquid scintillation cocktail
To investigate binding properties of test compounds to human μ-opioid receptor, transfected CHO-K1 cell membranes and [^3H]-DAMGO (Perkin Elmer, ES-542-C), as the radioligand, were used. The assay was carried out with 20 μg of membrane suspension, 1 nM of [^3H]-DAMGO in either absence or presence of either buffer or 10 μM Naloxone for total and non-specific binding, respectively. Binding buffer contained Tris-HCl 50 mM, MgCl2 5 mM at pH 7.4. Plates were incubated at 27° C. for 60 minutes. After the incubation period, the reaction mix was then transferred to MultiScreen HTS, FC plates (Millipore), filtered and plates were washed 3 times with ice-cold 10 mM Tris-HCL (pH 7.4). Filters were dried and counted at approximately 40% efficiency in a MicroBeta scintillation counter (Perkin-Elmer) using EcoScint liquid scintillation cocktail.

Row | SMILES | μ and σ1 dual binding | Ki [nM]
1 | CCC1(c2cccc(O)c2)CCCCN(CCOCC(C)(C)O)C1 (stereo not shown) [Example 19, 3-(3-ethyl-1-(2-(2-hydroxy-2-methylpropoxy)ethyl)azepan-3-yl)phenol] | ++ | –
2 | CCC1(c2cccc(O)c2)CCCCN(CCN2CCN(c3ccccc3)CC2)C1 (stereo not shown) [Example 7, 3-(3-ethyl-1-(2-(4-phenylpiperazin-1-yl)ethyl)azepan-3-yl)phenol] | ++ | –
3 | CCOCCN1CCCC[C@@](CC)(c2cccc(O)c2)C1 (stereo in doubt) [Example 20, (S)-3-(1-(2-ethoxyethyl)-3-ethylazepan-3-yl)phenol] | ++ | –
4 | CCC1(c2cccc(O)c2)CCCCN(CCOC(C)C)C1 (stereo not shown) [Example 12, 3-(3-ethyl-1-(2-isopropoxyethyl)azepan-3-yl)phenol] | – | < 500
5 | CCC1(c2cccc(O)c2)CCCCN(CCOC2CC2)C1 (stereo not shown) [Example 18, 3-(1-(2-cyclopropoxyethyl)-3-ethylazepan-3-yl)phenol] | ++ | –
6 | CCC1(c2cccc(O)c2)CCCCN(CCN2CCCCC2)C1 (stereo not shown) [Example 9, 3-(3-ethyl-1-(2-(piperidin-1-yl)ethyl)azepan-3-yl)phenol] | – | < 500
7 | CCC1(c2cccc(O)c2)CCCCN(CCOc2cccnc2)C1 (stereo not shown) [Example 14, 3-(3-ethyl-1-(2-(pyridin-3-yloxy)ethyl)azepan-3-yl)phenol] | ++ | –
8 | CCC1(c2cccc(OC)c2)CCCCN(CCN2CCOCC2)C1 (stereo not shown) [Example 3, 4-(2-(3-Ethyl-3-(3-methoxyphenyl)azepan-1-yl)ethyl)morpholine] | – | ≥ 500
9 | CCC1(c2cccc(O)c2)CCCCN(CC(=O)N2CCOCC2)C1 (stereo not shown) [Example 16, 2-(3-ethyl-3-(3-hydroxyphenyl)azepan-1-yl)-1-morpholinoethanone] | – | ≥ 500
10 | CCOCCN1CCCCC(CC)(c2cccc(NS(=O)(=O)C(C)C)c2)C1 (stereo not shown) [Example 24, N-{3-[1-(2-Ethoxyethyl)-3-ethylazepan-3-yl]phenyl}propane-2-sulfonamide] | – | ≥ 500
11 | CCC1(c2cccc(O)c2)CCCCN(CCN2CCOCC2)C1 (stereo not shown) [Example 8, 3-(3-ethyl-1-(2-morpholinoethyl)azepan-3-yl)phenol] | ++ | –
12 | CCC1(c2cccc(O)c2)CCCCN(CC(=O)N2CCCCC2)C1 (stereo not shown) [Example 13, 2-(3-ethyl-3-(3-hydroxyphenyl)azepan-1-yl)-1-(piperidin-1-yl)ethanone] | ++ | –
13 | CCOCCN1CCCCC(CC)(c2cccc(O)c2)C1 (stereo not shown) [Example 11, 3-(1-(2-Ethoxyethyl)-3-ethylazepan-3-yl)phenol] | – | < 100
14 | CCOCCN1CCCCC(CC)(c2cccc(OC)c2)C1 (stereo not shown) [Example 5, 1-(2-ethoxyethyl)-3-ethyl-3-(3-methoxyphenyl)azepane] | – | ≥ 500
15 | CCOCCN1CCCC[C@](CC)(c2cccc(O)c2)C1 (stereo in doubt) [Example 21, (R)-3-(1-(2-ethoxyethyl)-3-ethylazepan-3-yl)phenol] | ++ | –
16 | CCC1(c2cccc(O)c2)CCCCN(CCO)C1 (stereo not shown) [Example 10, 3-(3-ethyl-1-(2-hydroxyethyl)azepan-3-yl)phenol] | ++ | –
17 | CCOCCN1CCCCC(CC)(c2cccc(NS(C)(=O)=O)c2)C1 (stereo not shown) [Example 23, N-{3-[1-(2-Ethoxyethyl)-3-ethylazepan-3-yl]phenyl}methanesulfonamide] | – | ≥ 500
18 | CCC1(c2cccc(OC)c2)CCCCN(CCN2CCN(C)CC2)C1 (stereo not shown) [Example 1, 3-Ethyl-3-(3-methoxyphenyl)-1-(2-(4-methylpiperazin-1-yl)ethyl)azepane] | – | ≥ 500
19 | CCC1(c2cccc(O)c2)CCCCN(CCN2CCN(C)CC2)C1 (stereo not shown) [Example 6, 3-(3-Ethyl-1-(2-(4-methylpiperazin-1-yl)ethyl)azepan-3-yl)phenol] | ++ | –
20 | CCOCCN1CCCCC(CC)(c2cccc(N)c2)C1 (stereo not shown) [Example 22, 3-[1-(2-Ethoxyethyl)-3-ethylazepan-3-yl]aniline] | – | ≥ 500
21 | CCC1(c2cccc(O)c2)CCCCN(CCOC)C1 (stereo not shown) [Example 17, 3-(3-ethyl-1-(2-methoxyethyl)azepan-3-yl)phenol] | ++ | –
22 | CCC1(c2cccc(OC)c2)CCCCN(CCN2CCCCC2)C1 (stereo not shown) [Example 4, 3-ethyl-3-(3-methoxyphenyl)-1-(2-(piperidin-1-yl)ethyl)azepane] | – | ≥ 500
